Where “and” joins values, the source holds several entries; their conditions need not be identical. Equal entries are not always repeated.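 Cultured in 96-well plates, cells were exposed to test compound for 48 hours across five concentrations. Abbreviation: GI50, concentration required for 50% inhibition of growth. Definition used: TGI = concentration required for complete inhibition of growth.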
Experiments:
Test in all cases: NCI-60 cell line screen, 48 h
KM12 colon = system: KM12 colon
SW-620 colon = system: SW-620 colon
ACHN renal = system: ACHN renal
SN12C renal = system: SN12C renal
SF-295 CNS = system: SF-295 CNS
SK-MEL-28 melanoma = system: SK-MEL-28 melanoma
MALME-3M melanoma = system: MALME-3M melanoma
TK-10 renal = system: TK-10 renal
A549 NSCLC = system: A549 NSCLC
NCI-H522 lung = system: NCI-H522 lung

Compound | GI50 (KM12 colon) | TGI (KM12 colon) | GI50 (SW-620 colon) | TGI (SW-620 colon) | GI50 (ACHN renal) | TGI (ACHN renal) | GI50 (SN12C renal) | TGI (SN12C renal) | GI50 (SF-295 CNS) | TGI (SF-295 CNS) | GI50 (SK-MEL-28 melanoma) | TGI (SK-MEL-28 melanoma) | GI50 (MALME-3M melanoma) | TGI (MALME-3M melanoma) | GI50 (TK-10 renal) | TGI (TK-10 renal) | GI50 (A549 NSCLC) | TGI (A549 NSCLC) | GI50 (NCI-H522 lung) | TGI (NCI-H522 lung)
COC(=O)c1cc(O)c2c(c1C(=O)OC)C[C@H]1[C@@H]3CC=C4C[C@@H](O)CC[C@]4(C)[C@H]3CC[C@]21C | 2.91 µM | 12.2 µM | 3.48 µM | 17.6 µM | 3.64 µM | 17 µM | 3.57 µM | 26.8 µM | 1.72 µM | 4.4 µM | 2.71 µM | 8.59 µM | 2.71 µM | 8.15 µM | 3.83 µM | 11.8 µM | 3.06 µM | 11.7 µM | 2.17 µM | 5.44 µM
CC[N+]1(C)CCC(O)(c2ccc(OC)cc2)C(C(=O)c2ccc(OC)cc2)C1 (stereo not given) |  | 31.2 µM |  | 4.82 µM |  | 27.2 µM |  | 32.9 µM |  | 38.9 µM |  | 29.3 µM |  | 17.2 µM |  | 20.4 µM |  | 41.3 µM |  | 3.89 µM
Nc1ccn(C2OC(COC(=O)C34CC5CC(CC(C5)C3)C4)C(O)C2O)c(=O)n1 (stereo not given) |  | > 100 µM |  | > 100 µM |  | > 100 µM |  | > 100 µM |  | > 100 µM |  | > 100 µM |  | > 100 µM |  | > 100 µM |  | > 100 µM |  | > 100 µM
OCC(O)c1nc2ccc3[nH]ncc3c2c2c1CCCC2 (stereo not given) | 1.62 µM | > 50 µM | 1.3 µM | > 50 µM | 1.13 µM | > 50 µM | 1.56 µM | > 50 µM | 1.62 µM | > 50 µM | 1.22 µM | 3.76 µM | 1.67 µM | 4.82 µM | 1.42 µM | > 50 µM | 1.67 µM | > 50 µM | 1.5 µM | 9.87 µM
Cc1sc2c(c1C)C(c1ccc(Cl)cc1)=N[C@@H](CC(=O)OC(C)(C)C)c1nnc(C)n1-2 | 2.57 µM and 0.962 µM | 23.1 µM and 20.1 µM | 10.9 µM and 4.09 µM | 28.1 µM and 22.9 µM | 0.67 µM and 0.496 µM | 18.3 µM and 15.8 µM | 8.65 µM and 1.95 µM | 25.9 µM and 22 µM | 0.365 µM and 0.182 µM | 18.2 µM and 15.5 µM | 1.98 µM and 0.397 µM | 20.2 µM and 15.2 µM | 11.4 µM and 4.84 µM | 26.4 µM and 22.1 µM | 0.154 µM and 0.0583 µM | 12.7 µM and 13.4 µM | 0.73 µM and 0.312 µM | 21.8 µM and 15.3 µM | 0.179 µM and 0.0566 µM | 7.38 µM and 11.6 µM
Cn1c2ccc(Br)cc2c2c3c(c4c5ccccc5[nH]c4c21)C(=O)N(O)C3=O | 0.237 µM | 0.902 µM | 0.0787 µM | 0.394 µM | 0.0448 µM | 0.244 µM | 0.0814 µM | 0.445 µM | 0.223 µM | 0.633 µM | 0.212 µM | 0.498 µM | 0.186 µM | 0.386 µM | 0.655 µM | 1.42 µM | 0.63 µM | 2.49 µM | 0.0506 µM | 0.286 µM
O=C(OCc1ncc(-c2ccc(C(F)(F)F)cc2)c(NC2CCCCCC2)n1)c1c(F)c(F)c(F)c(F)c1F | 18.1 µM | 42.5 µM | 7.21 µM | 26.6 µM | 14.2 µM | 29.2 µM | 12.1 µM | 28 µM | 17.4 µM | 33.8 µM | 11.7 µM | 24.7 µM | 16.6 µM | 32.6 µM | 21.5 µM | 37 µM | 18.2 µM | 51.4 µM | 3.9 µM | 14.6 µM
O=C(Nc1cccc(O)c1)C(=O)C(C(=O)c1ccc(Cl)c(Cl)c1)C1OC(=O)c2ccccc21 (stereo not given) |  | 41.4 µM |  | 29 µM |  | 29.7 µM |  | 38.4 µM |  | 62.6 µM |  | 40.6 µM |  | 33.8 µM |  | 60.3 µM |  | > 100 µM |  | 21.8 µM
Cc1nc(N2CCC3(CC2)CO[C@@H](C)[C@H]3N)c(CO)nc1Sc1ccnc(N)c1Cl | 2.21 µM | > 100 µM | > 100 µM | > 100 µM | 4.81 µM | > 100 µM | 12.2 µM | > 100 µM | 26.6 µM | > 100 µM | > 100 µM | > 100 µM | > 100 µM | > 100 µM | 0.336 µM | > 100 µM | > 100 µM | > 100 µM | 1.32 µM | > 100 µM
CC(C)(C)CC(C)(C)NCc1cc(C(C)(C)C)cc(CNC(C)(C)CC(C)(C)C)c1O | 3.32 µM | 11.2 µM | 2.79 µM | 12.4 µM | 2.81 µM | 10.8 µM | 2.74 µM | 11.9 µM | 3.23 µM | 11.7 µM | 5.24 µM | 17.6 µM | 1.85 µM | 4 µM | 2.55 µM | 5.87 µM | 3.97 µM | 14.7 µM | 1.78 µM | 3.66 µM
COc1cc(Nc2nc3ccccc3cc2C(=O)Nc2ccc(F)c(F)c2)cc(OC)c1OC | 2.89 µM | 16 µM | 3.53 µM | > 100 µM | 2.51 µM | 7.59 µM | 3.43 µM | > 100 µM | 2.85 µM | 10.2 µM | 3.54 µM | > 100 µM | 2.68 µM | 6.41 µM | 4.52 µM | > 100 µM | 3.08 µM | > 100 µM | 2.07 µM | 6.97 µM
O=C(/C=C/c1ccccc1)n1c(-c2ccc(Cl)cc2)nc2ccccc21 | 1.44 µM | 2.93 µM | 1.45 µM | 5.03 µM | 1.18 µM | 10 µM | 1.39 µM | 2.76 µM | 2.5 µM | 6.46 µM | 1.49 µM | 3.22 µM | 1.63 µM | 5.74 µM | 2.35 µM | 7.93 µM | 1.89 µM | 7.3 µM | 1.23 µM | 2.64 µM

— PubChem BioAssay (NCI)
